Converted amounts (≈) assume the structure as drawn.
Columns and labels:
HeLa [1] = assay: Potency index, ratio of podophyllotoxin IC50 to test compound IC50 for antiproliferative activity against human HeLa cells; type: functional
MCF7 [2] = assay: cells; type: functional, cell-based; conditions: Homo sapiens
Description: Antiproliferative activity against human MCF7 cells by MTT assay

MCF7 [3] = assay: Potency index, ratio of podophyllotoxin IC50 to test compound IC50 for antiproliferative activity against human MCF7 cells; type: functional
HeLa [4] = assay: Antiproliferative activity against human HeLa cells by MTT assay; type: functional, cell-based
HepG2 [5] = assay: Potency index, ratio of podophyllotoxin IC50 to test compound IC50 for antiproliferative activity against human HepG2 cells; type: functional
NIH3T3 = assay: Antiproliferative activity against mouse NIH/3T3 cells by MTT assay; type: functional, cell-based
DU-145 [6] = assay: Antiproliferative activity against human DU145 cells by MTT assay; type: functional, cell-based
HepG2 [7] = assay: Antiproliferative activity against human HepG2 cells by MTT assay; type: functional, cell-based
A549 [8] = assay: cells; type: functional, cell-based; conditions: Homo sapiens
Description: Antiproliferative activity against human A549 cells by MTT assay

DU-145 [9] = assay: Potency index, ratio of podophyllotoxin IC50 to test compound IC50 for antiproliferative activity against human DU145 cells; type: functional
A549 [10] = assay: Potency index, ratio of podophyllotoxin IC50 to test compound IC50 for antiproliferative activity against human A549 cells; type: functional
PC-3 = assay: Antiproliferative activity against human PC3 cells by MTT assay; type: functional, cell-based
HCT-116 = assay: Antiproliferative activity against human HCT116 cells by MTT assay; type: functional, cell-based
K562 = assay: Antiproliferative activity against human K562 cells by MTT assay; type: functional, cell-based
[11] = Antiproliferative activity against human SMCC7721 cells by MTT assay; type: functional, cell-based
LNCaP = assay: Antiproliferative activity against human LNCAP cells by MTT assay; type: functional, cell-based
U-251 = assay: Antiproliferative activity against human U251 cells by MTT assay; type: functional, cell-based
SK-BR-3 = assay: Antiproliferative activity against human SKBR3 cells by MTT assay; type: functional, cell-based
L02 = assay: Antiproliferative activity against human HL7702 cells by MTT assay; type: cell-based
HFF = assay: Antiproliferative activity against human HFF cells by MTT assay; type: cell-based
K562/Adr = assay: Antiproliferative activity against human K562/ADR cells by MTT assay; type: functional, cell-based
NCI-H1299 = assay: Antiproliferative activity against human H1299 cells by MTT assay; type: functional, cell-based
Ca-Ski = assay: Antiproliferative activity against human CaSki cells by MTT assay; type: functional, cell-based
NCI-H460 = assay: Antiproliferative activity against human H460 cells by MTT assay; type: functional, cell-based
MGC-803 [12] = assay: Antiproliferative activity against human MGC803 cells by MTT assay; type: functional, cell-based
MCF7 [13] = assay: Potency index, ratio of 5-fluorouracil IC50 to test compound IC50 for antiproliferative activity against human MCF7 cells; type: functional
MDA-MB-468 [14] = assay: Potency index, ratio of 5-fluorouracil IC50 to test compound IC50 for antiproliferative activity against human MDA-MB-468 cells; type: functional
MDA-MB-231 [15] = assay: Potency index, ratio of 5-fluorouracil IC50 to test compound IC50 for antiproliferative activity against human MDA-MB-231 cells; type: functional
MDA-MB-468 [16] = assay: Antiproliferative activity against human MDA-MB-468 cells assessed as reduction in cell viability after 72 hrs by MTT assay; type: functional, cell-based; conditions: MDA-MB-468, 72 h
MCF7 [17] = assay: Antiproliferative activity against human MCF7 cells assessed as reduction in cell viability after 72 hrs by MTT assay; type: functional, cell-based; conditions: MCF7, 72 h
MDA-MB-231 [18] = assay: Antiproliferative activity against human MDA-MB-231 cells assessed as reduction in cell viability after 72 hrs by MTT assay; type: functional, cell-based; conditions: MDA-MB-231, 72 h, read-out: IC50
BGC-823 = assay: Antiproliferative activity against human BGC823 cells assessed as reduction in cell viability after 72 hrs by MTT assay; type: functional, cell-based; conditions: BGC-823, 72 h
MGC-803 [19] = assay: Antitumour activity against human MGC803 cells xenografted in BALB/c nude mice assessed as inhibition of tumour growth at 60 mg/kg, ig administered for 21 days relative to control; type: functional; conditions: Mus musculus, MGC-803, po, 504 h; read-out: TGI
SGC-7901 = assay: Antiproliferative activity against human SGC7901 cells assessed as reduction in cell viability after 72 hrs by MTT assay; type: functional, cell-based; conditions: SGC-7901, 72 h
MGC-803 [20] = assay: Antiproliferative activity against human MGC803 cells assessed as reduction in cell viability after 72 hrs by MTT assay; type: functional, cell-based; conditions: MGC-803, 72 h
Tubulin = assay: Inhibition of tubulin polymerization (unknown origin); type: protein-complex assay, Homo sapiens
[21] = Potency index, ratio of cisplatin IC50 to test compound IC50 for antiproliferative activity against human […] cells; type: functional
A549 [22] = assay: Potency index, ratio of etoposide IC50 to test compound IC50 for antiproliferative activity against human A549 cells; type: functional
[23] = Potency index, ratio of etoposide IC50 to test compound IC50 for antiproliferative activity against human […] cells; type: functional
SW480 [24] = assay: Potency index, ratio of cisplatin IC50 to test compound IC50 for antiproliferative activity against human SW480 cells; type: functional
SW480 [25] = assay: Potency index, ratio of etoposide IC50 to test compound IC50 for antiproliferative activity against human SW480 cells; type: functional
MCF7 [26] = assay: Potency index, ratio of cisplatin IC50 to test compound IC50 for antiproliferative activity against human MCF7 cells; type: functional
HL-60 = assay: Antiproliferative activity against human HL60 cells assessed as reduction in cell viability after 48 hrs by MTT assay; type: functional, cell-based; conditions: HL-60, 48 h
MCF7 [27] = assay: Potency index, ratio of etoposide IC50 to test compound IC50 for antiproliferative activity against human MCF7 cells; type: functional
[28] = Antiproliferative activity against human SMCC7721 cells assessed as reduction in cell viability after 48 hrs by MTT assay; type: functional, cell-based
SW480 [29] = assay: Antiproliferative activity against human SW480 cells assessed as reduction in cell viability after 48 hrs by MTT assay; type: functional, cell-based; conditions: SW480, 48 h
A549 [30] = assay: Antiproliferative activity against human A549 cells assessed as reduction in cell viability after 48 hrs by MTT assay; type: functional, cell-based; conditions: A549, 48 h
A549 [31] = assay: Potency index, ratio of cisplatin IC50 to test compound IC50 for antiproliferative activity against human A549 cells; type: functional
SK-OV-3 = assay: Antiproliferative activity against human SKOV3 cells by SRB assay; type: functional, cell-based
MCF7 [32] = assay: Antiproliferative activity against human MCF7 cells by SRB assay; type: functional, cell-based
HepG2 [33] = assay: Potency index, ratio of etoposide IC50 to test compound IC50 for antiproliferative activity against human HepG2 cells by SRB assay; type: functional; conditions: pooled result: one value given for 7 cell lines, strains, targets or settings
MCF7-DOX = assay: Antiproliferative activity against human MCF7/Dox cells by SRB assay; type: functional, cell-based
HeLa [34] = assay: Antiproliferative activity against human HeLa cells by SRB assay; type: functional, cell-based
HepG2 [35] = assay: Antiproliferative activity against human HepG2 cells by SRB assay; type: functional, cell-based
DU-145 [36] = assay: Antiproliferative activity against human DU145 cells by SRB assay; type: functional, cell-based
A549 [37] = assay: Antiproliferative activity against human A549 cells by SRB assay; type: functional, cell-based

Compound: COc1cc([C@@H]2c3cc4c(cc3[C@H](NC(=O)c3cn(-c5ccc(Cl)cc5)nn3)[C@H]3COC(=O)[C@H]23)OCO4)cc(OC)c1OC
- Ratio IC50 (HeLa [1]): 3.8 - 8.5
- IC50 (MCF7 [2]): 0.7 to 1.21 µM
- Ratio IC50 (MCF7 [3]): 3.8 - 8.5
- IC50 (HeLa [4]): 0.7 to 1.21 µM
- Ratio IC50 (HepG2 [5]): 3.8 - 8.5
- IC50 (NIH3T3): 0.7 to 1.21 µM
- IC50 (DU-145 [6]): 0.7 to 1.21 µM
- IC50 (HepG2 [7]): 0.7 to 1.21 µM
- IC50 (A549 [8]): 0.7 to 1.21 µM
- Ratio IC50 (DU-145 [9]): 3.8 - 8.5
- Ratio IC50 (A549 [10]): 3.8 - 8.5

Compound: COC(=O)c1ccc(-c2cn(CC(=O)O[C@H]3c4cc5c(cc4[C@@H](c4cc(OC)c(OC)c(OC)c4)[C@H]4C(=O)OC[C@@H]43)OCO5)nn2)cc1
- IC50 (PC-3): 21.1 to 124 µM
- IC50 (MCF7 [2]): 21.1 to 124 µM
- IC50 (HCT-116): 19.6 to 55.3 µM
- IC50 (K562): 19.6 to 55.3 µM
- IC50 (A549 [8]): 21.1 to 124 µM
- IC50 [11]: 19.6 to 55.3 µM
- IC50 (LNCaP): 19.6 to 55.3 µM
- IC50 (U-251): 19.6 to 55.3 µM
- IC50 (SK-BR-3): 19.6 to 55.3 µM
- IC50 (L02): 565 µM
- IC50 (HFF): 195 µM
- IC50 (K562/Adr): 19.6 to 55.3 µM

Compound: CO[C@H]1C[C@@H]2CC[C@@H](C)[C@@](O)(O2)C(=O)C(=O)N2CCCC[C@H]2C(=O)O[C@H]([C@H](C)C[C@@H]2CC[C@@H](OCCCn3cc(CNc4ccc(Cl)cc4Cl)nn3)[C@H](OC)C2)CC(=O)[C@H](C)/C=C(\C)[C@@H](O)[C@@H](OC)C(=O)[C@H](C)C[C@H](C)/C=C/C=C/C=C/1C
- IC50 (NCI-H1299): 6.05 to 25.9 µM
- IC50 (Ca-Ski): 6.05 to 25.9 µM
- IC50 (NCI-H460): 6.05 to 25.9 µM
- IC50 (MGC-803 [12]): 6.05 to 25.9 µM

Compound: COc1cc(Cn2cc(CN3c4ccccc4Sc4ccccc43)nn2)cc(OC)c1OC
- Ratio IC50 (MCF7 [13]): 6.2 - 15.8
- Ratio IC50 (MDA-MB-468 [14]): 6.2 - 15.8
- Ratio IC50 (MDA-MB-231 [15]): 6.2 - 15.8
- IC50 (MDA-MB-468 [16]): 0.8 to 1.7 µM
- IC50 (MCF7 [17]): 0.8 to 1.7 µM
- IC50 (MDA-MB-231 [18]): 0.8 to 1.7 µM

Compound: Cc1cc(=O)oc2cc(OCc3cn(-c4ccc(S(N)(=O)=O)cc4)nn3)ccc12
- IC50 (BGC-823): 0.4 to 3.5 µg/mL (≈ 0.97 to 8.49 µM)
- inhibition in vivo at 60 mg/kg (MGC-803 [19]): 64.2%
- IC50 (SGC-7901): 0.4 to 3.5 µg/mL (≈ 0.97 to 8.49 µM)
- IC50 (MGC-803 [20]): 0.4 to 3.5 µg/mL (≈ 0.97 to 8.49 µM)
- IC50 (Tubulin): 2.4 µM

Compound: CCCC(=O)OC[C@H]1O[C@@H](OC(COCc2cn([C@H]3c4cc5c(cc4[C@@H](c4cc(OC)c(OC)c(OC)c4)[C@H]4C(=O)OC[C@@H]43)OCO5)nn2)COCc2cn([C@H]3c4cc5c(cc4[C@@H](c4cc(OC)c(OC)c(OC)c4)[C@H]4C(=O)OC[C@@H]43)OCO5)nn2)[C@H](OC(=O)CCC)[C@@H](OC(=O)CCC)[C@@H]1OC(=O)CCC (stereo partly drawn)
- Ratio IC50 [21]: 2.8 - 21.3
- Ratio IC50 (A549 [22]): 2.8 - 21.3
- Ratio IC50 [23]: 2.8 - 21.3
- Ratio IC50 (SW480 [24]): 2.8 - 21.3
- Ratio IC50 (SW480 [25]): 2.8 - 21.3
- Ratio IC50 (MCF7 [26]): 2.8 - 21.3
- IC50 (HL-60): 0.43 to 3.5 µM
- Ratio IC50 (MCF7 [27]): 2.8 - 21.3
- IC50 [28]: 0.43 to 3.5 µM
- IC50 (SW480 [29]): 0.43 to 3.5 µM
- IC50 (A549 [30]): 0.43 to 3.5 µM
- Ratio IC50 (A549 [31]): 2.8 - 21.3

Compound: CO/N=C1\C(=O)N(CCOCCn2cc(CN3C(=O)/C(=N\OC)c4ccccc43)nn2)c2ccccc21
- IC50 (SK-OV-3): 0.18 to 9.92 µM
- IC50 (MCF7 [32]): 0.18 to 9.92 µM
- Ratio IC50 (HepG2 [33]): 1.55
- IC50 (MCF7-DOX): 0.18 to 9.92 µM
- IC50 (HeLa [34]): 0.18 to 9.92 µM
- IC50 (HepG2 [35]): 0.18 to 9.92 µM
- IC50 (DU-145 [36]): 0.18 to 9.92 µM
- IC50 (A549 [37]): 0.18 to 9.92 µM

Source: ChEMBL document CHEMBL4342418, “1,2,3-Triazole-containing hybrids as potential anticancer agents: Current developments, action mechanisms and structure-activity relationships” (Eur J Med Chem, 2019)
